Calls of active or inactive are those of the source. No rule for the calls is given here.
Test system: CCRIS mutagenicity, Ames/micronucleus/aberration tests
Assay: CCRIS mutagenicity studies
[1] = Test System: AMES SALMONELLA TYPHIMURIUM, Strain/Indicator: TA100, Metabolic Activation: NONE, Method: STANDARD PLATE

CN(N=O)C(N)=O
mutagenic call (End Point: IN VITRO CHROMOSOMAL ABERRATIONS, Test System: CHINESE HAMSTER V79-E CELLS, Metabolic Activation: NONE): active; positive | mutagenic call (End Point: IN VITRO CHROMOSOMAL ABERRATIONS, Test System: V79 CELLS (V79-C10), Metabolic Activation: NONE): active; positive | mutagenic call (End Point: IN VITRO MICRONUCLEUS, Test System: CHINESE HAMSTER V79 CELLS, Metabolic Activation: NONE): active; positive at the cytotoxic dose of 0.8 mm | mutagenic call (End Point: IN VITRO MICRONUCLEUS, Test System: MOUSE LYMPHOMA L5178Y CELLS, Metabolic Activation: NONE): active; positive | mutagenic call (End Point: Mutagenicity, Test System: Spleen: t-lymphocytes/hprt mutants, Species: Rat, Strain/Sex: Wistar/male, Route: Intraperitoneal): active; positive; mutation induction dramatically lower following subchronic treatment; | mutagenic call (Test System: AMES SALMONELLA TYPHIMURIUM, Strain/Indicator: G46, Metabolic Activation: NONE, Method: STANDARD PLATE): active; positive | mutagenic call (Test System: AMES SALMONELLA TYPHIMURIUM, Strain/Indicator: TA100, Metabolic Activation: NONE, Method: LIQUID INCUBATION): active; positive | mutagenic call [1]: active; positive | mutagenic call (Test System: AMES SALMONELLA TYPHIMURIUM, Strain/Indicator: TA100, Metabolic Activation: RAT, LIVER, S-9, AROCLOR 1254, Method: PREINCUBATION): active; positive | mutagenic call (Test System: AMES SALMONELLA TYPHIMURIUM, Strain/Indicator: TA100, Metabolic Activation: RAT, LIVER, S-9, KC500 OR PHENOBARBITAL, Method: LIQUID SUSPENSION): active; positive | mutagenic call (Test System: AMES SALMONELLA TYPHIMURIUM, Strain/Indicator: TA100, Metabolic Activation: RAT, LIVER, S-9, PHENOBARBITAL, Method: STANDARD PLATE): active; positive | mutagenic call (Test System: AMES SALMONELLA TYPHIMURIUM, Strain/Indicator: TA102, Metabolic Activation: RAT, LIVER, S-9, AROCLOR 1254, Method: PREINCUBATION): active; positive | mutagenic call (Test System: AMES SALMONELLA TYPHIMURIUM, Strain/Indicator: TA104, Metabolic Activation: NONE, Method: PREINCUBATION): active; positive | mutagenic call (Test System: AMES SALMONELLA TYPHIMURIUM, Strain/Indicator: TA104, Metabolic Activation: RAT, LIVER, S-9, AROCLOR 1254, Method: PREINCUBATION): active; positive | mutagenic call (Test System: AMES SALMONELLA TYPHIMURIUM, Strain/Indicator: TA1530, Metabolic Activation: NONE, Method: PREINCUBATION): active; positive | mutagenic call (Test System: AMES SALMONELLA TYPHIMURIUM, Strain/Indicator: TA1530, Metabolic Activation: NONE, Method: STANDARD PLATE): active; positive | mutagenic call (Test System: AMES SALMONELLA TYPHIMURIUM, Strain/Indicator: TA1535, Metabolic Activation: NONE, Method: LIQUID INCUBATION): active; positive | mutagenic call (Test System: AMES SALMONELLA TYPHIMURIUM, Strain/Indicator: TA1535, Metabolic Activation: NONE, Method: PREINCUBATION): active; positive | mutagenic call (Test System: AMES SALMONELLA TYPHIMURIUM, Strain/Indicator: TA1535, Metabolic Activation: NONE, Method: STANDARD PLATE): active; positive | mutagenic call (Test System: AMES SALMONELLA TYPHIMURIUM, Strain/Indicator: TA1535, Metabolic Activation: RAT, LIVER, S-9, PCB OR PHENOBARBITAL, Method: STANDARD PLATE): active; positive | mutagenic call (Test System: AMES SALMONELLA TYPHIMURIUM, Strain/Indicator: YG7100, Metabolic Activation: NONE, Method: PREINCUBATION): active; positive | mutagenic call (Test System: AMES SALMONELLA TYPHIMURIUM, Strain/Indicator: YG7104, Metabolic Activation: NONE, Method: PREINCUBATION): active; positive | mutagenic call (Test System: AMES SALMONELLA TYPHIMURIUM, Strain/Indicator: YG7108, Metabolic Activation: NONE, Method: PREINCUBATION): active; positive | mutagenic call (Test System: AMES SALMONELLA TYPHIMURIUM, Strain/Indicator: YG7112, Metabolic Activation: NONE, Method: PREINCUBATION): active; positive | mutagenic call (Test System: AMES SALMONELLA TYPHIMURIUM, Strain/Indicator: YG7113, Metabolic Activation: NONE, Method: PREINCUBATION): active; positive | mutagenic call (Test System: AMES SALMONELLA TYPHIMURIUM, Strain/Indicator: YG7119, Metabolic Activation: NONE, Method: PREINCUBATION): active; positive | mutagenic call (Test System: CHINESE HAMSTER OVARY, Strain/Indicator: CHO-K1-BH4 (HGPRT), Metabolic Activation: NONE, Method: SUSPENSION/PLATE): active; positive | mutagenic call (Test System: CHINESE HAMSTER V-79, Strain/Indicator: V-79/6-THIOGUANINE, Metabolic Activation: NONE, Method: FLASK ASSAY): active; positive | mutagenic call (Test System: CHINESE HAMSTER V-79, Strain/Indicator: V-79/6-THIOGUANINE, Metabolic Activation: NONE, Method: STANDARD PLATE): active; positive | mutagenic call (Test System: CHINESE HAMSTER V-79, Strain/Indicator: V-79/8-AZAGUANINE, Metabolic Activation: NONE, Method: STANDARD PLATE): active; positive | mutagenic call (Test System: CHINESE HAMSTER V-79, Strain/Indicator: V-79/OUABAIN, Metabolic Activation: NONE): active; positive | mutagenic call (Test System: CHO/HGPRT, Strain/Indicator: CHO-K1-BH4, Metabolic Activation: NONE): active; positive | mutagenic call (Test System: CHO/HGPRT, Strain/Indicator: CHO-K1-BH4, Metabolic Activation: NONE, Method: STANDARD PLATE): active; positive | mutagenic call (Test System: E. COLI, Strain/Indicator: H/R30R, Metabolic Activation: NONE): active; positive | mutagenic call (Test System: E. COLI, Strain/Indicator: H/R30R, Metabolic Activation: NONE, Method: PREINCUBATION): active; positive | mutagenic call (Test System: E. COLI, Strain/Indicator: HS30R UVRA, Metabolic Activation: NONE, Method: PREINCUBATION): active; positive | mutagenic call (Test System: E. COLI, Strain/Indicator: HS30R, Metabolic Activation: NONE): active; positive | mutagenic call (Test System: E. COLI, Strain/Indicator: NG30 RECA, Metabolic Activation: NONE, Method: PREINCUBATION): active; positive | mutagenic call (Test System: E. COLI, Strain/Indicator: O16 POLA, Metabolic Activation: NONE, Method: PREINCUBATION): active; positive | mutagenic call (Test System: E. COLI, Strain/Indicator: WP2, Metabolic Activation: NONE, Method: FLUCTUATION): active; positive | mutagenic call (Test System: E. COLI, Strain/Indicator: WP2, Metabolic Activation: NONE, Method: STANDARD PLATE): active; positive | mutagenic call (Test System: E. COLI, Strain/Indicator: WP2 UVRA, Metabolic Activation: NONE, Method: FLUCTUATION): active; positive | mutagenic call (Test System: E. COLI, Strain/Indicator: WP2 UVRA, Metabolic Activation: NONE, Method: STANDARD PLATE): active; positive | mutagenic call (Test System: LacZ transgenic mouse (Muta Mouse), Strain/Indicator: LacZ Mutant frequency, Method: Liver and kidney harvested 37 days after last dose): active; positive in kidney. no increase in mutation frequency in liver. | mutagenic call (Test System: UDS HUMAN CELLS, Strain/Indicator: THY INCORP (NON-S-PHASE), Metabolic Activation: NONE, Method: LIQUID SCINTILLATION COUNTING): active; positive | mutagenic call (Test System: UDS HUMAN FIBROBLASTS, Strain/Indicator: THY INCORP (NON-S-PHASE), Metabolic Activation: NONE, Method: AUTORADIOGRAPHY): active; positive | mutagenic call (Test System: UDS MOUSE SPERMATOGONIAL AND POSTSPERMATOGONIAL CELLS IN VIVO, Strain/Indicator: THYMIDINE INCORPORATION, Metabolic Activation: NONE, Method: AUTORADIOGRAPHY): active; positive | mutagenic call (Test System: UDS RODENT CELLS, Strain/Indicator: THY INCORP (NON-S-PHASE), Metabolic Activation: NONE, Method: LIQUID SCINTILLATION COUNTING): active; positive

CC(=O)N(O)c1ccc(O)cc1
mutagenic call (End Point: IN VITRO MICRONUCLEUS, Test System: RAT KIDNEY FIBROBLAST NRK-49F, Metabolic Activation: NONE): active; positive

NN(Cc1ccccc1)Cc1ccccc1
mutagenic call [1]: inactive; negative | mutagenic call (Test System: AMES SALMONELLA TYPHIMURIUM, Strain/Indicator: TA100, Metabolic Activation: RAT, LIVER, S-9, AROCLOR 1254, Method: STANDARD PLATE): inactive; negative | mutagenic call (Test System: AMES SALMONELLA TYPHIMURIUM, Strain/Indicator: TA102, Metabolic Activation: NONE, Method: STANDARD PLATE): inactive; negative | mutagenic call (Test System: AMES SALMONELLA TYPHIMURIUM, Strain/Indicator: TA102, Metabolic Activation: RAT, LIVER, S-9, AROCLOR 1254, Method: STANDARD PLATE): inactive; negative

Clc1ccccc1C(c1ccccc1)C(c1ccccc1)c1ccccc1Cl (stereo not drawn)
mutagenic call (Test System: Mouse lymphoma, Strain/Indicator: L5178Y (tk+/tk-), Metabolic Activation: None, Method: Suspension/plate): inactive; negative | mutagenic call (Test System: Mouse lymphoma, Strain/Indicator: L5178Y (tk+/tk-), Metabolic Activation: Rat, Liver, S-9, Aroclor 1254, Method: Suspension/plate): active; equivocal (previous evaluation positive)

CC(C)(C)ON=O
mutagenic call (Test System: AMES SALMONELLA TYPHIMURIUM, Strain/Indicator: TA100, Metabolic Activation: NONE, Method: PREINCUBATION): active; positive | mutagenic call (Test System: AMES SALMONELLA TYPHIMURIUM, Strain/Indicator: TA100, Metabolic Activation: RAT, LIVER, S-9, AROCLOR, Method: PREINCUBATION): inactive; negative | mutagenic call (Test System: AMES SALMONELLA TYPHIMURIUM, Strain/Indicator: TA102, Metabolic Activation: NONE, Method: PREINCUBATION): inactive; negative

Reference: PubChem BioAssay AID1259407 (Chemical Carcinogenesis Research Information System (CCRIS), 2018)
